Assay results published in ChEMBL document CHEMBL5370641, “Structure-Based Optimization and Biological Evaluation of Potent and Selective MMP-7 Inhibitors for Kidney Fibrosis” (J Med Chem, 2023).
The source made the active and inactive calls. The calls are words filed in the database; no cut-off is given here. Numbered stars: 1 amine (or outer) side, 2 acyl side, 3 side chain; on linkers, the order of the positions; unused ones are H or OH. Square brackets hold non-standard residues; d marks the D form. Peptide text beside a SMILES is read from it. * marks the point of attachment. Benzenesulfonyl(4-Cl,3-CF3) = O=S(=O)(c1ccc(Cl)c(C(F)(F)F)c1)*; γGlu = O=C(O)[C@H](CCC(=O)[*:2])N[*:1]; 4Pal = N[C@@H](Cc1ccncc1)C(=O)O; Tle = CC(C)(C)[C@H](N)C(=O)O; β3hP = O=C(O)C[C@@H]1CCCN1

Tests used:
[1] = target: Neutrophil collagenase (Homo sapiens, UniProt P22894); test: Inhibition of recombinant human MMP8 using MOCAc-Pro-Leu-Gly-Leu-A2pr-(Dnp)-Ala-Arg-NH2 as substrate preincubated with compound for 15 mins followed by substrate addition and measured after 1 hrs by fluorescence based analysis
[2] = target: T1, Matrilysin (Homo sapiens, UniProt P09237); test: Inhibition of recombinant human MMP7 using MOCAc-Pro-Leu-Gly-Leu-A2pr-(Dnp)-Ala-Arg-NH2 as substrate preincubated with compound for 15 mins followed by substrate addition and measured after 2 hrs by fluorescence based analysis
T1 sequence (P09237 whole entry): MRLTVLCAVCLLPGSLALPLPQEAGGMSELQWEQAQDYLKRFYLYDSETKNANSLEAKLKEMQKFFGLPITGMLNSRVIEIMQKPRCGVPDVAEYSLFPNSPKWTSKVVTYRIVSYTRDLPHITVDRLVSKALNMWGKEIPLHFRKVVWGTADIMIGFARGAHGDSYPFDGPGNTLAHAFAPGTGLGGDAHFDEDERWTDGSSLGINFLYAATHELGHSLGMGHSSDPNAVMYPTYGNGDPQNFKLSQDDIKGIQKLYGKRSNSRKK

[3] = target: Matrix metalloproteinase-14 (Homo sapiens, UniProt P50281); test: Inhibition of recombinant human MMP14 using MOCAc-Lys-Pro-Leu-Gly-Leu-A2pr(Dnp)-Ala-Arg-NH2 as substrate preincubated with compound for 15 mins followed by substrate addition and measured after 1 hrs by fluorescence based analysis
[4] = target: T2, Interstitial collagenase (Homo sapiens, UniProt P03956); test: Inhibition of recombinant human MMP1 using MOCAc-Lys-Pro-Leu-Gly-Leu-A2pr(Dnp)-Ala-Arg-NH2 as substrate preincubated with compound for 15 mins followed by substrate addition and measured after 1 hrs by fluorescence based analysis
T2 sequence (P03956 whole entry): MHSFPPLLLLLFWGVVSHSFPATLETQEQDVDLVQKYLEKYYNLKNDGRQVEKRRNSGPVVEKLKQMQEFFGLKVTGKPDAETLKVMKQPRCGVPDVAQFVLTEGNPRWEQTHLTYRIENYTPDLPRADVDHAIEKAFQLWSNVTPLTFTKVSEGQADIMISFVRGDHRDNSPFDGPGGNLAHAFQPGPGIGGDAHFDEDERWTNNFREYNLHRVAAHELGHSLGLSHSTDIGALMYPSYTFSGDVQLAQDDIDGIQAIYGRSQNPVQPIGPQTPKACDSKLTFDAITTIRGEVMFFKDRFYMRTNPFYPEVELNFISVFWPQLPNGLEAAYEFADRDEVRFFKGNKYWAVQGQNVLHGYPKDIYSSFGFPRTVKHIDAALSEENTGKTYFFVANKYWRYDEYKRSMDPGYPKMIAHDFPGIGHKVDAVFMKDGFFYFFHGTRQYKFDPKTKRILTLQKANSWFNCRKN

[5] = target: 72 kDa type IV collagenase (Homo sapiens, UniProt P08253); test: Inhibition of recombinant human MMP2 using MOCAc-Pro-Leu-Gly-Leu-A2pr-(Dnp)-Ala-Arg-NH2 as substrate preincubated with compound for 15 mins followed by substrate addition and measured after 1 hrs by fluorescence based analysis
[6] = target: Stromelysin-1 (Homo sapiens, UniProt P08254); test: Inhibition of recombinant human MMP3 using MOCAc-Arg-Pro-Lys-Pro-Val-Glu-Nva-Trp-Arg-Lys(Dnp)-NH2 as substrate preincubated with compound for 15 mins followed by substrate addition and measured after 1 hrs by fluorescence based analysis
[7] = target: Matrix metalloproteinase-9 (Homo sapiens, UniProt P14780); test: Inhibition of recombinant human MMP9 using MOCAc-Pro-Leu-Gly-Leu-A2pr-(Dnp)-Ala-Arg-NH2 as substrate preincubated with compound for 15 mins followed by substrate addition and measured after 1 hrs by fluorescence based analysis
[8] = target: Macrophage metalloelastase (Homo sapiens, UniProt P39900); test: Inhibition of recombinant human MMP12 using MOCAc-Pro-Leu-Gly-Leu-A2pr-(Dnp)-Ala-Arg-NH2 as substrate preincubated with compound for 15 mins followed by substrate addition and measured after 1 hrs by fluorescence based analysis
[9] = target: Collagenase 3 (Homo sapiens, UniProt P45452); test: Inhibition of recombinant human MMP13 using MOCAc-Pro-Leu-Gly-Leu-A2pr-(Dnp)-Ala-Arg-NH2 as substrate preincubated with compound for 15 mins followed by substrate addition and measured after 1 hrs by fluorescence based analysis
[10] = Metabolic stability in human serum assessed as parent compound remaining at 5 uM incubated for 4 hrs by LC-MS/MS analysis; type: ADME, cell-free; details: read-out: Stability
[11] = species on record: Homo sapiens; test: Selectivity ratio of IC50 for inhibition of recombinant human MMP1 to IC50 for inhibition of recombinant human MMP7
[12] = species on record: Homo sapiens; test: Selectivity ratio of IC50 for inhibition of recombinant human MMP2 to IC50 for inhibition of recombinant human MMP7
[13] = species on record: Homo sapiens; test: Selectivity ratio of IC50 for inhibition of recombinant human MMP3 to IC50 for inhibition of recombinant human MMP7
[14] = species on record: Homo sapiens; test: Selectivity ratio of IC50 for inhibition of recombinant human MMP8 to IC50 for inhibition of recombinant human MMP7
[15] = species on record: Homo sapiens; test: Selectivity ratio of IC50 for inhibition of recombinant human MMP9 to IC50 for inhibition of recombinant human MMP7
[16] = species on record: Homo sapiens; test: Selectivity ratio of IC50 for inhibition of recombinant human MMP12 to IC50 for inhibition of recombinant human MMP7
[17] = species on record: Homo sapiens; test: Selectivity ratio of IC50 for inhibition of recombinant human MMP13 to IC50 for inhibition of recombinant human MMP7
[18] = species on record: Homo sapiens; test: Selectivity ratio of IC50 for inhibition of recombinant human MMP14 to IC50 for inhibition of recombinant human MMP7
[19] = Lipophilicity, logD of compound at pH 7.4 by HPLC-UV analysis; type: physicochemical; details: buffer
[20] = Protein binding in human serum incubated for 4 hrs by equilibrium dialysis based LC-MS/MS analysis; type: ADME, cell-free; details: read-out: PB (converted)
[21] = Protein binding in mouse serum incubated for 4 hrs by equilibrium dialysis based LC-MS/MS analysis; type: ADME, cell-free; details: read-out: PB (converted)
[22] = Metabolic stability in human liver microsome assessed as intrinsic clearance at 1 uM incubated for 15 mins by LC-MS analysis; type: ADME; details: liver microsomes, read-out: CLH (converted)
[23] = Metabolic stability in rat liver microsome assessed as intrinsic clearance at 1 uM incubated for 15 mins by LC-MS analysis; type: ADME; details: liver microsomes, read-out: CLH (converted)
[24] = Metabolic stability in rat hepatocytes assessed as intrinsic clearance at 1 uM incubated for 1 to 4 hrs by LC-MS/MS analysis; type: ADME, cell-based, Hepatocyte; details: time 1-4 hrs, read-out: CLH (converted)
[25] = Total clearance in Sprague-Dawley rat at 1 mg/kg, iv administered as single dose by LC-MS/MS analysis; type: ADME, organism-based; details: in vivo
[26] = Volume of distribution at steady state in Sprague-Dawley rat at 1 mg/kg, iv administered as single dose by LC-MS/MS analysis; type: ADME, organism-based; details: in vivo, read-out: Vdss
[27] = target: T3, Matrilysin (Mus musculus, UniProt Q10738); test: Inhibition of mouse MMP7 using MOCAc-Pro-Leu-Gly-Leu-A2pr-(Dnp)-Ala-Arg-NH2 as substrate preincubated with compound for 15 mins followed by substrate addition and measured after 2 hrs by fluorescence based analysis
T3 sequence (Q10738 whole entry): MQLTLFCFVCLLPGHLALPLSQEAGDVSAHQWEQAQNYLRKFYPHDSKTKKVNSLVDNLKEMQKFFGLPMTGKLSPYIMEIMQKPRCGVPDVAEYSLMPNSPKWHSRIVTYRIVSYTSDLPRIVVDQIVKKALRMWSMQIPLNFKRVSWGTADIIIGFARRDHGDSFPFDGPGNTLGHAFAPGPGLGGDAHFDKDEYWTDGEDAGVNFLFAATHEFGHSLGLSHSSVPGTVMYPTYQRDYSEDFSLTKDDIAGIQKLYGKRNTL

[28] = system: Mus musculus; test: Antifibrotic activity against unilateral ureteric obstruction induced C57BL/6J mouse model of renal fibrosis assessed as reduction in renal collagen at 10 to 100 mg/kg/day, SC preadministered with compound for 7 days followed by UUO surgery and measured after 7 days; type: functional, organism-based; details: dose 10-100 mg/kg/day, time 14.0 day

Sequence of Matrix metalloproteinase-9 (P14780 whole entry): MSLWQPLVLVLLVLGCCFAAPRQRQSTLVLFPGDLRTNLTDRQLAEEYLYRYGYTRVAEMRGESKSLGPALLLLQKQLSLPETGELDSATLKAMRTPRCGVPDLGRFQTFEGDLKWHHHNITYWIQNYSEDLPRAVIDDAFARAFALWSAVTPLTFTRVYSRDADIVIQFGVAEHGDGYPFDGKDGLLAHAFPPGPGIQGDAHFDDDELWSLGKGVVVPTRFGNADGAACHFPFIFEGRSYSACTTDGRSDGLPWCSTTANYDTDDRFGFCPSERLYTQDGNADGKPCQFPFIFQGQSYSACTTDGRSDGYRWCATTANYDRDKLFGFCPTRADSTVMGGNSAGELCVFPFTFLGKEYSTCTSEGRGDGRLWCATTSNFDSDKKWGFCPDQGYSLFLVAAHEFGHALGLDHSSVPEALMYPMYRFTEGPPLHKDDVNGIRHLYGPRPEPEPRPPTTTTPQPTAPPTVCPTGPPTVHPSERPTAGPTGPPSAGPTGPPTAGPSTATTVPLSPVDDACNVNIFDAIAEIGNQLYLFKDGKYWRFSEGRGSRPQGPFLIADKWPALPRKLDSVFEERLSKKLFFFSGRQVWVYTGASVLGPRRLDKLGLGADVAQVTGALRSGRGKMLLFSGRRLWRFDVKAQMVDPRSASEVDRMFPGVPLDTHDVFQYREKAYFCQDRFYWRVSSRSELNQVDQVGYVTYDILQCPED
Sequence of Neutrophil collagenase (P22894 whole entry): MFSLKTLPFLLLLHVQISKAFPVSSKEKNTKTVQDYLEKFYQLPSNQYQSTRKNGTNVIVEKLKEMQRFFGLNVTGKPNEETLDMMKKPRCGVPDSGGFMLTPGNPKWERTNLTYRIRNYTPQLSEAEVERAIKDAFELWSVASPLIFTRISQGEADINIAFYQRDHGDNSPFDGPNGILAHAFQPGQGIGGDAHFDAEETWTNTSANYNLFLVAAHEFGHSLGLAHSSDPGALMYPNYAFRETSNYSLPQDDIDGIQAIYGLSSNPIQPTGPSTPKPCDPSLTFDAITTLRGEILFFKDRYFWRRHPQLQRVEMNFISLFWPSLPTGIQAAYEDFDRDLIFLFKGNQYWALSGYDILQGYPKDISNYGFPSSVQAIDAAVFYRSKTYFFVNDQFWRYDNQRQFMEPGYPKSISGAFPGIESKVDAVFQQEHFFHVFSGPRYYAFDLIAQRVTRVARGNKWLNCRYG
Sequence of Stromelysin-1 (P08254 whole entry): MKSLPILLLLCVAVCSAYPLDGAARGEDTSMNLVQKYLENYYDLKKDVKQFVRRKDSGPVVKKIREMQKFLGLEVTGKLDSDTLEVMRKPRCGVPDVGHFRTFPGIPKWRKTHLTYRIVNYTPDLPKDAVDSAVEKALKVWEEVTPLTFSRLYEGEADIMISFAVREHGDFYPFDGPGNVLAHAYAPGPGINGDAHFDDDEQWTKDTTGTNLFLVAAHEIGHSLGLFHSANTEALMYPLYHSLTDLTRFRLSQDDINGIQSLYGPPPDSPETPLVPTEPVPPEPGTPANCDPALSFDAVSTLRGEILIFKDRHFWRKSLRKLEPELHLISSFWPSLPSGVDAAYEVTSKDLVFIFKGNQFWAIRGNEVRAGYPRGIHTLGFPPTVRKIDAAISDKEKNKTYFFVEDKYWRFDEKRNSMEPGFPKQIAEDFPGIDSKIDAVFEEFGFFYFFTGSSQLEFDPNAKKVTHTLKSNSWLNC
Sequence of Macrophage metalloelastase (P39900 whole entry): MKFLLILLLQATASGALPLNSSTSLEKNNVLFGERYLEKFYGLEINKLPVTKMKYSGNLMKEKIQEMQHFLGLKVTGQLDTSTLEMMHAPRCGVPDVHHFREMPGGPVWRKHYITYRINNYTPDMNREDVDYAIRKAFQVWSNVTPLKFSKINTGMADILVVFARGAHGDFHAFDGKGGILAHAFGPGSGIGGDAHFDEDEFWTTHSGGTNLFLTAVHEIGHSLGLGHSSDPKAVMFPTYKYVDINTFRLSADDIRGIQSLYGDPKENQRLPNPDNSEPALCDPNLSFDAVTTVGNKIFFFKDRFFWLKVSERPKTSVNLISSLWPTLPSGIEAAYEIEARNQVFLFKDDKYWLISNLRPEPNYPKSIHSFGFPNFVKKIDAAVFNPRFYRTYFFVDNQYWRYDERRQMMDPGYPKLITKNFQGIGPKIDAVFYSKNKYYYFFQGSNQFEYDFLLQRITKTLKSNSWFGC
Sequence of 72 kDa type IV collagenase (P08253 whole entry): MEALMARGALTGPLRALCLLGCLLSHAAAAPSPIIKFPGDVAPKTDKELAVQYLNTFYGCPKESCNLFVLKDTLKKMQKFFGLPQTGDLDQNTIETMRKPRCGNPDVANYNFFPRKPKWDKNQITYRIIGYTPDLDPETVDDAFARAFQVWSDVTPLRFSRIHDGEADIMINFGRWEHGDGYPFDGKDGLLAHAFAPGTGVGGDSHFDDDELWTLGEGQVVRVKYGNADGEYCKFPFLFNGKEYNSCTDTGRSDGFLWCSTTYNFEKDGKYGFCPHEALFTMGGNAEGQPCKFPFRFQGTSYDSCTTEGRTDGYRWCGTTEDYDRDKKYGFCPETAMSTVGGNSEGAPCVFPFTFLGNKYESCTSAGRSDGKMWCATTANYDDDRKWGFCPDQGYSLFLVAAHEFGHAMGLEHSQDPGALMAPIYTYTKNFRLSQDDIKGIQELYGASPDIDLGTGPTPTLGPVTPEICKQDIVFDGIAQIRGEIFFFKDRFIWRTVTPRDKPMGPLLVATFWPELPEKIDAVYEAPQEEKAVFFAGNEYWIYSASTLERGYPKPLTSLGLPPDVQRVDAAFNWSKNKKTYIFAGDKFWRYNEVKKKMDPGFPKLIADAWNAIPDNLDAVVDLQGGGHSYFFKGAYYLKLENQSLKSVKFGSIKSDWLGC

- IC50 [1]: > 100000 nM
- IC50 [2]: 2.8 nM
- IC50 [3]: 850 nM
- IC50 [4]: > 100000 nM
- IC50 [5]: 7500 nM
- IC50 [6]: > 100000 nM
- IC50 [7]: > 100000 nM
- IC50 [8]: 1300 nM
- IC50 [9]: > 100000 nM
- remaining at 4 h, 5 µM [10]: 101%
- Ratio IC50 [11]: > 36000
- Ratio IC50 [12]: 2700
- Ratio IC50 [13]: > 36000
- Ratio IC50 [14]: > 36000
- Ratio IC50 [15]: > 36000
- Ratio IC50 [16]: 460
- Ratio IC50 [17]: > 36000
- Ratio IC50 [18]: 300
- logD [19]: 1.04
- fraction unbound at 4 h [20]: 0.266
- fraction unbound at 4 h [21]: 0.368
- CLint scaled at 1 µM [22]: 13.6 mL/min/kg
- CLint scaled at 1 µM [23]: 23.6 mL/min/kg
- CLint scaled at 1 µM [24]: 11 mL/min/kg
- clearance [25]: 85.5 mL/min/kg
- Vd [26]: 1.09 L/kg
- IC50 [27]: 49 nM
SMILES: CC(C)(C)[C@H](NC(=O)[C@H](Cc1ccncc1)NC(=O)CNC(=O)CC[C@H](NS(=O)(=O)c1ccc(Cl)c(C(F)(F)F)c1)C(=O)O)C(=O)N1CCC[C@H]1CC(N)=O ({Benzenesulfonyl(4-Cl,3-CF3)-γGlu}-G[4Pal][Tle][β3hP]-NH2)
- Activity [28]: Active
